Results taken from patent publication US20100331269A1, “TRITERPENES DERIVATIVES AND USES THEREOF AS ANTITUMOR AGENTS OR ANTI-INFLAMMATORY AGENTS” (priority 2006, published 2010).

Assays:
[1] = test system: B16-F1 mouse melanoma cells; assay: Cytotoxicity, resazurin metabolism assay, B16-F1; type: cell-based; details: 48 h, mean ± SD
Excerpt: (§1) Human lung carcinoma (A-549), human colon adenocarcinoma (DLD-1), human normal fibroblasts (WS1), mice melanoma (B16-F1), Human glioma (U-251), Human hepatocellular carcinoma (HEP G2), Human prostate adenocarcinoma (PC-3), Human ovary teratocarcinoma metastatic (PA-1), Human breast adenocarcinona metastatic (MDA-MB-231), Human breast adenocarcinoma (MCF-7) and Human malignant melanoma (SK-MEL-2) cell lines were obtained from the American Type Culture Collection (ATCC). All cell lines were cultured in minimum essential medium containing Earle's salts and L-glutamine (Mediatech Cellgro, Va.), to which was added 10% fetal bovine serum (Hyclone), vitamins (1×), penicillin (100 I.U./mL) and streptomycin (100 μg/mL), essential amino acids (1×) and sodium pyruvate (1×) (Mediatech Cellgro, Va.). Cells were kept at 37° C. in a humidified environment containing 5% CO2.
(§2) Exponentially growing cells were plated in 96-well microplates (Costar, Corning Inc.) at a density of 5×10^3 cells per well in 100 μL of culture medium and were allowed to adhere for 16 hours before treatment. Increasing concentrations of each compound in DMSO (Sigma-Aldrich) were then added (100 μL per well) and the cells were incubated for 48 h. […] Cytotoxicity was assessed using resazurin (O'Brien, J. et al., Eur. J. Biochem. 2000, 267, 5421-5426) on an automated 96-well Fluoroskan Ascent F1™ plate reader (Labsystems) using excitation and emission wavelengths of 530 nm and 590 nm, respectively. Fluorescence was proportional to the cellular metabolic activity in each well. Survival percentage was defined as the fluorescence in experimental wells compared to that in control wells after subtraction of blank values. Each experiment was carried out three times in triplicata. IC50 results were expressed as mean±standard deviation.
(§3) The cytotoxicity of triterpenes (1-8) and corresponding glycosides (9-30) (Table 2 below) as well as of germanicane-type triterpenes and glycosides (31-44) (Table 3 below) was assessed towards human cancer (A-549, DLD-1), mouse melanoma (B16-F1) and human normal skin fibroblast (WS1) cell lines using the resazurin reduction test (RTT test) as previously described (O'Brien, J. et al., Eur. J. Biochem. 2000, 267, 5421-5426). Measurements of fluorescence were carried out after 48 continuous hours of contact between compounds and cells. Results presented in Tables 2 and 3 below express the concentration inhibiting 50% of the cell growth (IC50). Known for its activity against A-549, betulinic acid (3) was used as a positive control in this experimentation. […] The cytotoxic activity of some of these compounds was also assessed using the Hoechst DNA assay (Table 4 below).

B16-F1 cells = assay: Cytotoxicity, Hoechst DNA assay, B16-F1; type: cell-based, mouse; details: ± SD
Excerpt: as §1, §3

[2] = test system: PC-3 human prostate adenocarcinoma cells; assay: Cytotoxicity, resazurin metabolism assay, PC-3; type: cell-based; details: mean ± SD
Excerpt: as §1, §2
(§4) Compounds presented in Table 5 below were also tested in the following tumour cell lines: U-251 (Human glioma), HEP G2 (Human hepatocellular carcinoma), PC-3 (Human prostate adenocarcinoma), PA-1 (Human ovary teratocarcinoma metastatic), MDA-MB-231 (Human breast adenocarcinona metastatic), MCF-7 (Human breast adenocarcinoma) and SK-MEL-2 (Human malignant melanoma).

[3] = test system: MDA-MB-231 human breast adenocarcinoma cells; assay: Cytotoxicity, resazurin metabolism assay, MDA-MB-231; type: cell-based; details: mean ± SD
Excerpt: as §1, §2, §4

[4] = test system: Hep G2 human hepatocellular carcinoma cells; assay: Cytotoxicity, resazurin metabolism assay, Hep G2; type: cell-based; details: mean ± SD
Excerpt: as §1, §2, §4

[5] = test system: PA-1 human ovary teratocarcinoma cells; assay: Cytotoxicity, resazurin metabolism assay, PA-1; type: cell-based; details: mean ± SD
Excerpt: as §1, §2, §4

WS-1 cells = assay: Cytotoxicity, Hoechst DNA assay, WS-1; type: cell-based, human; details: ± SD
Excerpt: as §1, §3

U-251 human glioma cells = assay: Cytotoxicity, resazurin metabolism assay, U-251; type: cell-based; details: mean ± SD
Excerpt: as §1, §2, §4

[6] = test system: WS-1 human normal skin fibroblasts; assay: Cytotoxicity, resazurin metabolism assay, WS-1; type: cell-based; details: 48 h, mean ± SD
Excerpt: as §1, §2, §3

A-549 cells = assay: Cytotoxicity, Hoechst DNA assay, A-549; type: cell-based, human; details: ± SD
Excerpt: as §1, §3

[7] = test system: A-549 human lung carcinoma cells; assay: Cytotoxicity, resazurin metabolism assay, A-549; type: cell-based; details: 48 h, mean ± SD
Excerpt: as §1, §2, §3

[8] = test system: DLD-1 human colorectal adenocarcinoma cells; assay: Cytotoxicity, resazurin metabolism assay, DLD-1; type: cell-based; details: 48 h, mean ± SD
Excerpt: as §1, §2, §3

[9] = test system: SK-Mel-2 human melanoma cells; assay: Cytotoxicity, resazurin metabolism assay, SK-Mel-2; type: cell-based; details: mean ± SD
Excerpt: as §1, §2, §4

DLD-1 cells = assay: Cytotoxicity, Hoechst DNA assay, DLD-1; type: cell-based, human; details: ± SD
Excerpt: as §1, §3

[10] = test system: MCF-7 human breast adenocarcinoma cells; assay: Cytotoxicity, resazurin metabolism assay, MCF-7; type: cell-based; details: mean ± SD
Excerpt: as §1, §2, §4

Structure (SMILES) | IC50 [1] [µM] | IC50 (B16-F1 cells) [µM] | IC50 [2] [µM] | IC50 [3] [µM] | IC50 [4] [µM] | IC50 [5] [µM] | IC50 (WS-1 cells) [µM] | IC50 (U-251 human glioma cells) [µM] | IC50 [6] [µM] | IC50 (A-549 cells) [µM] | IC50 [7] [µM] | IC50 [8] [µM] | IC50 [9] [µM] | IC50 (DLD-1 cells) [µM] | IC50 [10] [µM]
C=C(C)[C@@H]1CC[C@]2(C(=O)O)CC[C@]3(C)[C@H](CC[C@@H]4[C@@]5(C)CC[C@H](O[C@H]6OC[C@@H](O)[C@@H](O)[C@@H]6O)C(C)(C)[C@@H]5CC[C@]43C)[C@@H]12 [Compound 23, 3-O-α-D-Arabinopyranoside of Betulinic Acid] | 11 ± 1 | 10.2 ± 0.6 | 110 ± 10 | 57 ± 6 | 66 ± 9 | 20 ± 2 | 32 ± 2 | 70 ± 10 | 47 ± 5 | 5.7 ± 0.8 | 10 ± 2 | 17 ± 3 | 62 ± 7 | 10 ± 1 | 45 ± 9
C=C(C)C1CCC2(CO)CCC3(C)C(CCC4C5(C)CCC(OC6OC(CO)C(O)C(O)C6O)C(C)(C)C5CCC43C)C12 [Compound 26, 3-O-β-D-Mannopyranoside of Betulin] |  |  | 8.6 ± 0.4 | 9.1 ± 0.2 | 8.3 ± 0.4 | 7.6 ± 0.4 |  | 8.3 ± 0.4 | 5.3 ± 0.5 |  | 7.5 ± 0.1 | 11 ± 0.5 | 8.8 ± 0.4 |  | 9.2 ± 0.4
C=C(C)[C@@H]1CC[C@]2(C(=O)O)CC[C@]3(C)[C@H](CC[C@@H]4[C@@]5(C)CC[C@H](O[C@@H]6OC[C@@H](O)[C@H](O)[C@H]6O)C(C)(C)[C@@H]5CC[C@]43C)[C@@H]12 [Compound 30, 3-O-β-D-Xylopyranoside of betulinic acid] |  |  | 46 ± 8 | 40 ± 4 | 43 ± 3 | 7.9 ± 0.9 |  | 26 ± 6 | 21 ± 1 |  | 14 ± 2 | 19.2 ± 0.8 | 36 ± 4 |  | 23 ± 4
C=C(C)C1CCC2(C(=O)O)CCC3(C)C(CCC4C5(C)CCC(OC6OC(CO)C(O)C(O)C6O)C(C)(C)C5CCC43C)C12 [Compound 29, 3-O-β-D-Mannopyranoside of Betulinic Acid] |  |  | 27 ± 3 | 21 ± 2 | 26 ± 2 | 2.2 ± 0.2 |  | 6 ± 2 | 16 ± 3 |  | 41 ± 4 | 14.9 ± 0.5 | 4.7 ± 0.6 |  | 20 ± 2
C=C(C)C1CCC2(CO)CCC3(C)C(CCC4C5(C)CCC(OC6OCC(O)C(O)C6O)C(C)(C)C5CCC43C)C12 [Compound 14, 3-O-α-D-Arabinopyranoside of Betulin] | 38 ± 3 |  | 65 ± 6 | 49.2 ± 0.9 | 38 ± 2 | 41 ± 5 |  | 40 ± 7 | 59 ± 5 |  | 41 ± 3 | 63 ± 8 | 54 ± 3 |  | 61 ± 7
CC1(C)CC[C@]23CC[C@]4(C)[C@H](CC[C@@H]5[C@@]6(C)CC[C@H](O[C@@H]7O[C@H](CO)[C@H](O)[C@H](O)[C@H]7O)C(C)(C)[C@@H]6CC[C@]54C)[C@H]2[C@H]1OC3 [Compound 36, 3-O-β-D-Galactopyranoside of Allobetulin] |  |  | 45 ± 6 | 44 ± 4 | 41 ± 10 | 45 ± 4 |  | 53 ± 4 | 30 ± 9 |  | 30 ± 10 | 42 ± 9 | 40 ± 3 |  | 60 ± 20
C=C(C)[C@@H]1CC[C@]2(COC(C)=O)CC[C@]3(C)[C@H](CC[C@@H]4[C@@]5(C)CC[C@H](O)C(C)(C)[C@@H]5CC[C@]43C)[C@@H]12 [Compound 5, 28-Acetoxybetulin] | 43 ± 2 | 35 ± 1 |  |  |  |  | 47 ± 2 |  | 44 ± 2 | 49 ± 7 | 75 ± 7 | 56 ± 4 |  | 46 ± 5 | 
C=CCOC(=O)C12CCC(C(=C)C)C1C1CCC3C4(C)CCC(O)C(C)(C)C4CCC3(C)C1(C)CC2 (centres unmarked) [Compound 8, Allyl betulinate] | > 225 | > 225 |  |  |  |  | > 225 |  | > 225 | > 225 | > 225 | > 225 |  | > 225 | 
CC1(C)CCC23CCC4(C)C(CCC5C6(C)CCC(OC7OC(CO)C(O)C(O)C7O)C(C)(C)C6CCC54C)C2C1OC3 [Compound 33, 3-O-β-D-Glucopyranoside of Allobetulin] |  |  | 42 ± 8 | 41.2 ± 0.7 | 44 ± 5 | 39 ± 2 |  | 46 ± 1 | 45 ± 3 |  | 31 ± 2 | 41.6 ± 0.9 | 37 ± 2 |  | 51 ± 2
C=C(C)[C@@H]1CC[C@]2(CO)CC[C@]3(C)[C@H](CC[C@@H]4[C@@]5(C)CC[C@H](OC(C)=O)C(C)(C)[C@@H]5CC[C@]43C)[C@@H]12 [Compound 6, 3-Acetoxybetulin] | > 253 | 42 ± 6 |  |  |  |  | > 180 |  | > 253 | 90 ± 10 | > 253 | > 253 |  | > 253 | 
C=C(C)C1CCC2(CO)CCC3(C)C(CCC4C5(C)CCC(OC6OC(C)C(O)C(O)C6O)C(C)(C)C5CCC43C)C12 [Compound 13, 3-O-α-L-Rhamnopyranoside of Betulin] | 18 ± 1 |  | 61 ± 6 | 33 ± 2 | 11 ± 0.9 | 180 ± 30 |  | 170 ± 40 | 33 ± 5 |  | 22 ± 3 | 50 ± 10 | 110 ± 20 |  | 19 ± 4
C=C(C)[C@@H]1CC[C@]2(CO)CC[C@]3(C)[C@H](CC[C@@H]4[C@@]5(C)CC[C@H](O)C(C)(C)[C@@H]5CC[C@]43C)[C@@H]12 [Compound 2, Betulin, reference compound] | 13.8 ± 0.5 | 10.3 ± 0.7 |  |  |  |  | 5 ± 1 |  | 3.58 ± 0.07 | 4.5 ± 0.3 | 3.8 ± 0.09 | 6.6 ± 0.3 |  | 5.9 ± 0.6 | 
C=C(C)[C@@H]1CC[C@]2(C(=O)O)CC[C@]3(C)[C@H](CC[C@@H]4[C@@]5(C)CC[C@H](O[C@@H]6O[C@H](CO)[C@@H](O)[C@H](O)[C@H]6O)C(C)(C)[C@@H]5CC[C@]43C)[C@@H]12 [Compound 21, 3-O-β-D-Glucopyranoside of Betulinic Acid] | 49 ± 13 | 17 ± 4 |  |  |  |  | > 178 |  | > 178 | > 178 | > 178 | 32 ± 9 |  | 12 ± 3 | 
C=C(C)[C@@H]1CC[C@]2(CO[C@@H]3O[C@H](CO)[C@@H](O)[C@H](O)[C@H]3O)CC[C@]3(C)[C@H](CC[C@@H]4[C@@]5(C)CC[C@H](O)C(C)(C)[C@@H]5CC[C@]43C)[C@@H]12 [Compound 15, 28-O-β-D-Glucopyranoside of Betulin] | > 248 | > 194 |  |  |  |  | > 194 |  | > 248 | > 194 | > 248 | > 248 |  | > 194 | 
C=C(C)[C@@H]1CC[C@]2(C(=O)OC)CC[C@]3(C)[C@H](CC[C@@H]4[C@@]5(C)CC[C@H](O[C@@H]6O[C@@H](C)[C@H](O)[C@@H](O)[C@H]6O)C(C)(C)[C@@H]5CC[C@]43C)[C@@H]12 [Compound 19, 3-O-α-L-Rhamnopyranoside of Methyl Betulinate] | 55 ± 2 | 46 ± 1 |  |  |  |  | 65 ± 5 |  | 53 ± 2 | 58 ± 2 | 59 ± 3 | > 183 |  | > 150 | 
